Measured values published in PubChem BioAssay AID652241 (Broad Institute, 2013).
Records with an inconclusive call do not appear. Active and inactive are the calls of the source.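 Rule for the calls: active = fitted curve reaches activity 50 in the expected rising direction at or below the top valid tested dose; inconclusive = no clear call, values can overlap the other calls; inactive = activity in the wrong direction, and the rest.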 Square brackets hold non-standard residues; d marks the D form. Peptide text beside a SMILES is read from it. ξ: configuration not given here. Ac5c = NC1(C(=O)O)CCCC1; ξP = O=C(O)C1CCCN1

Target: Virion infectivity factor (Human immunodeficiency virus type 1 group M subtype B (isolate BH10)) + Virion infectivity factor (Human immunodeficiency virus type 1 group M subtype B (isolate BRU/LAI)) + Virion infectivity factor (Human immunodeficiency virus type 1 group M subtype B (isolate PCV12)) + Virion infectivity factor (Human immunodeficiency virus type 1 group M subtype B (isolate HXB2)) (UniProt P69720+P69721+P69722+P69723)
Experiment: Vif multimerization inhibitor potency, dose response, imaging, HEK293T, cherry-picks (AID 652241);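 note: imaged cell signal that rises when Vif self-association is disrupted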
Conditions: 24 h

Virion infectivity factor (Human immunodeficiency virus type 1 group M subtype B (isolate BH10)) + Virion infectivity factor (Human immunodeficiency virus type 1 group M subtype B (isolate BRU/LAI)) + Virion infectivity factor (Human immunodeficiency virus type 1 group M subtype B (isolate PCV12)) + Virion infectivity factor (Human immunodeficiency virus type 1 group M subtype B (isolate HXB2)), sequence (P69720 whole entry, looked up): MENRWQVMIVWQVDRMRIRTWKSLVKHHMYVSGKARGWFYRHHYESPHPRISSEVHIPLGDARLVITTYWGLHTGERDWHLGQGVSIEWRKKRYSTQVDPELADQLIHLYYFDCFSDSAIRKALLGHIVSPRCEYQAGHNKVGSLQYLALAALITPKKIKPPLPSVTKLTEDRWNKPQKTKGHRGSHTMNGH
Virion infectivity factor (Human immunodeficiency virus type 1 group M subtype B (isolate BH10)) + Virion infectivity factor (Human immunodeficiency virus type 1 group M subtype B (isolate BRU/LAI)) + Virion infectivity factor (Human immunodeficiency virus type 1 group M subtype B (isolate PCV12)) + Virion infectivity factor (Human immunodeficiency virus type 1 group M subtype B (isolate HXB2)), sequence (P69721 whole entry, looked up): as the sequence (P69720 whole entry, looked up) above
Virion infectivity factor (Human immunodeficiency virus type 1 group M subtype B (isolate BH10)) + Virion infectivity factor (Human immunodeficiency virus type 1 group M subtype B (isolate BRU/LAI)) + Virion infectivity factor (Human immunodeficiency virus type 1 group M subtype B (isolate PCV12)) + Virion infectivity factor (Human immunodeficiency virus type 1 group M subtype B (isolate HXB2)), sequence (P69722 whole entry, looked up): as the sequence (P69720 whole entry, looked up) above
Virion infectivity factor (Human immunodeficiency virus type 1 group M subtype B (isolate BH10)) + Virion infectivity factor (Human immunodeficiency virus type 1 group M subtype B (isolate BRU/LAI)) + Virion infectivity factor (Human immunodeficiency virus type 1 group M subtype B (isolate PCV12)) + Virion infectivity factor (Human immunodeficiency virus type 1 group M subtype B (isolate HXB2)), sequence (P69723 whole entry, looked up): as the sequence (P69720 whole entry, looked up) above

SMILES	AC50
Cc1nnc2ccc(-c3cccc(NS(=O)(=O)c4cc(F)ccc4F)c3)nn12	10.7 µM
Cc1ccnc(NC(=O)CCCOc2cc(=O)n(C)c3ccccc23)c1	1.79 µM
COc1cc(C2C3=C(COC3=O)Oc3cc4c(cc32)OCO4)cc(OC)c1O (centres undefined)	0.849 µM
COc1ccc(/C=C/C(=O)c2cc(F)ccc2OC(=O)c2ccccc2OC)cc1OC	1.33 µM
CCOc1ccc(N2C(=O)/C(=C/c3cccs3)N(CC(=O)OC)C2=S)cc1	> 19.5 µM (inactive)
O=C(CCCCCn1c(=S)[nH]c2ccc(N3CCOCC3)cc2c1=O)NCc1ccccc1Cl	6.23 µM
CCCc1cc(=O)oc2cc(OCc3cc(OC)c(OC)c(OC)c3)c(Cl)cc12	19.1 µM
Cc1cnc(NC(=O)CN2CCN(c3ccccn3)CC2)s1	9.23 µM
O=C(NCc1ccccc1C(F)(F)F)c1cccc2c1C(=O)c1ccc(N3CCCCC3)cc1S2(=O)=O	14.1 µM
Cc1ccc(NC(=O)/C=C/c2ccco2)nc1	8.31 µM
COc1ccc(S(=O)(=O)N2c3cc(Cl)ccc3Oc3nc4ccccc4nc32)cc1	3.14 µM
COC(=O)c1ccc(Oc2coc3cc(OCc4cnn(-c5ccccc5)c4)ccc3c2=O)cc1	17.2 µM
Cc1ccc(CCC(=O)Nc2ncc(Cc3cc(Cl)ccc3Cl)s2)o1	2.02 µM
CC(=O)Nc1ccc(S(=O)(=O)N2c3ccccc3C(C)=CC2(C)C)cc1	> 19.5 µM (inactive)
Cc1cc(Cl)n2c(nc3cc(F)c(F)cc32)c1C#N	5.68 µM
O=C(NCc1cccnc1)NC1(C(F)(F)F)Oc2ccc(Cl)cc2O1 (centres undefined)	9.05 µM
Clc1ccc(-n2nnnc2Sc2ncnc3sccc23)cc1	> 6.8 µM (inactive)

Same assay, conditions: 24 h, at 2.1 µM (top of the series)

SMILES	activity, higher = inhibition
OCC1OC(n2cnc3c(NCc4ccco4)ncnc32)C(O)C1O (centres undefined)	inactive

Same assay, conditions: 24 h, at 6.8 µM (top of the series)

SMILES	activity, higher = inhibition
O=C(Nc1ccc2oc(-c3ccc4ccccc4c3)nc2c1)c1cccs1	inactive
Cc1nc(C)n(CC(=O)N2CCCC(C(=O)c3ccc(C(F)(F)F)cc3)C2)n1 (centres undefined)	inactive
O=C1Nc2ccccc2S/C1=C/Nc1cccc(Cl)c1	inactive
CCc1cccc2cc3c(N)c(C(=O)Nc4ccc(S(=O)(=O)N5CCCC5)cc4)sc3nc12	inactive
CCCN1C(=O)/C(=C\C=C2\N(CC)c3ccccc3C2(C)C)SC1=S	inactive
NC(c1csc(Nc2ccc(C(=O)c3ccccc3)cc2)n1)C1CCCCC1 (centres undefined)	inactive

Same assay, conditions: 24 h, at 19.5 µM (top of the series)

SMILES	activity, higher = inhibition
COc1ccc(CNC(=O)CN2C(=O)NC(c3ccccc3)(c3ccccc3)C2=O)cc1	inactive
NC(=O)c1sc2nc(-c3ccccc3)ccc2c1N	inactive
Cc1ccc(NC(=O)Cn2ncn3c(cc4ccccc43)c2=O)c(C)c1	inactive
Cc1ncoc1C(=O)N1CCCC(C(=O)c2ccc(Oc3ccccc3)cc2)C1 (centres undefined)	inactive
O=C(CCCn1c(=S)[nH]c2ccccc2c1=O)N1CCN(c2cccc(Cl)c2)CC1	inactive
CCOC(=O)C1=C(C)NC(=O)NC1	inactive
CCn1cc(CN2CCCC(C(=O)Nc3cccc(-c4cc5ccccc5[nH]4)c3)C2)c(C)n1 (centres undefined)	inactive
COc1ccccc1C(C)NC(=O)Cc1ccsc1 (centres undefined)	inactive
CSc1ccc(CN(C)CC(=O)NCCc2ccccc2)cc1	inactive
CCN(CCCNC(=O)C1CCC(=O)N1Cc1ccc(C)cc1)c1cccc(C)c1 (centres undefined)	inactive
CCN(CC)C(=O)c1ccc(C(=O)c2c(C)cc(C)cc2C)cc1	inactive
COc1cc(-c2cc(=O)c3c(O)c(OC)c(OC)cc3o2)cc(OC)c1O	inactive
COc1ccc(-c2cc(C(=O)Nc3ccc4c(c3)OCO4)no2)cc1	inactive
COc1c2ccoc2nc2c(OC)c(OC[C@@H](O)C(C)(C)O)ccc12	inactive
O=C(Nc1cnccn1)Nc1ccccc1Cl	inactive
CCCCOc1ncnc2c1[nH]c1ccccc12	inactive
Cc1cccc2cc(COC(=O)c3ccco3)c(=O)[nH]c12	inactive
CCC1(CC)NC(=O)N(CC(=O)Nc2ccc(OCc3ccccc3)cc2)C1=O	inactive
N#CC(C(=O)NCCc1ccccc1)c1nc2ccccc2nc1N1CCOCC1 (centres undefined)	inactive
COc1ccc(CN2C3CCC2CC(NC(=O)c2cc(OC)c(OC)c(OC)c2)C3)cc1 (centres undefined)	inactive
Cc1ccc(C(C)C)c(OCC#CCN2CCOCC2)c1	inactive
CCC(C)NC(=O)Cn1c(=O)n(-c2ccccc2)c(=O)c2ccc(C(=O)NCc3ccco3)cc21 (centres undefined)	inactive
COC(=O)c1ccc2c(=O)n(Cc3ccco3)c(SCC(=O)Nc3cc(C)on3)nc2c1	inactive
CCOC(=O)C1CCCN1C(=O)C1(NC(C)=O)CCCC1 (centres undefined) (Ac-[Ac5c]-[ξP]-OEt)	inactive

SMILES	activity, higher = inhibition
O=C(Cn1ncc2c3ccccc3n(Cc3cccc(Cl)c3)c2c1=O)N1CCC2(CC1)OCCO2	inactive
COc1ccc(-c2nc(-c3ccccn3)nc(N3CCN(C)CC3)c2C#N)cc1	inactive
CC(C)CC(NC(=O)C1CCCCC1)C(=O)N1CCC2(CC1)OCCO2 (centres undefined)	inactive
Cc1ccnc(SCC(=O)n2c3c(c4ccccc42)CC(C)CC3)n1 (centres undefined)	inactive
CCOC(=O)C1CCN(S(=O)(=O)c2cccc(-c3cn4cc(C)ccc4n3)c2)CC1	inactive
CC(C)CC(=O)Nc1ccc(-c2nnn(CC(=O)NCc3ccco3)n2)cc1	inactive
C=CCNc1sc(C(=O)c2ccc(Br)s2)c(N)c1C#N	inactive
CCCCCCn1c(N(CC)CC)nc2c1c(=O)[nH]c(=O)n2C	inactive
COc1ccc(CC(=O)OCC(=O)NCc2ccc(Cl)cc2)cc1	inactive
O=C(Cn1c(=O)oc2cc(S(=O)(=O)N3CCCCC3)ccc21)N1CCc2ccccc21	inactive
O=C(CCNC(=O)c1ccco1)Nc1ccc(OC(F)(F)F)cc1	inactive
O=C(COC(=O)/C=C/C(=O)OCC(=O)Nc1ccccc1F)Nc1ccccc1F	inactive
COc1ccccc1C(=O)COC(=O)C1(C)CC1(Cl)Cl (centres undefined)	inactive
CC(C)c1ccc(NC(=O)N2CCCC2C(=O)Nc2ccc(-n3cnnn3)cc2)cc1 (centres undefined)	inactive
O=C(CN(C(=O)c1csnn1)c1ccc(F)cc1)NCc1ccc2c(c1)OCO2	inactive
O=C(C1COc2ccccc2O1)N1CCN(Cc2ccc3c(c2)OCO3)CC1 (centres undefined)	inactive
COC(=O)c1sc(-c2ccc(Cl)cc2)cc1NC(=O)CSCC(=O)O	inactive
O=C(CSc1ncccn1)NC(=O)Nc1ccc2c(c1)OCCO2	inactive
Cc1cc(N2CCN(S(=O)(=O)c3ccc(Cl)c(Cl)c3)CC2)c2ccccc2n1	inactive
CN1CCc2nc3ccc(F)cc3c(C(N)=O)c2C1	inactive
COc1ccc(OC)c(/C(O)=C/C(=O)C(=O)Nc2cc(C)ccc2OC)c1	inactive
COc1ccc(NC(=O)Cn2nnc(C(=O)Nc3ccccc3C)c2N)cc1	inactive
COc1ccc([C@H]2CC(=O)C=C(c3cc4ccccc4s3)C2)cc1	inactive
CC(=O)Nc1ccc(C2(c3ccc(NC(C)=O)cc3)NC(=O)c3ccccc32)cc1	inactive

SMILES	activity, higher = inhibition
COc1ccc2cc(CCNS(=O)(=O)c3ccc(NC(C)=O)cc3)c(=O)[nH]c2c1	inactive
COc1cc(NC(=O)NCc2ccco2)ccc1-c1ccc(NC(=O)NCc2ccco2)cc1OC	inactive
CCOC(=O)c1c(NC(=O)CCC(=O)N2CCOCC2)sc2c1CC(C)(C)OC2	inactive
COc1cc(OC)cc(C(=O)N[C@H](C(=O)Nc2ccc3c(c2)OCO3)C(C)C)c1	inactive
O=S(=O)(Nn1cnnc1)c1ccccc1	inactive
CCCCn1c(-c2ccncc2)nc2c1c(=O)[nH]c(=O)n2CC(C)C	inactive
CCOc1ccc2c(C)c(C(=O)O)oc2c1OCC	inactive
COc1cc2[nH]c(=O)n(CCCC(=O)NC3CCCCC3)c(=O)c2cc1OC	inactive
COC(=O)N1C(=O)[C@](c2ccc(Cl)cc2)(C(C)C)N1C(=O)OC	inactive
COc1ccc(S(=O)(=O)Nc2cccc3ccc(O)cc23)cc1	inactive
CCNC(=O)[C@H]1O[C@@H](n2cnc3c(N)nc(NCCc4ccc(CCC(=O)O)cc4)nc32)[C@H](O)[C@@H]1O	inactive
COc1ccc2c(CC(=O)Nc3ccccc3OC)coc2c1	inactive
CCOC(=O)C1CCCN(CC(=O)Nc2c(C(=O)OC)[nH]c3ccc(Cl)cc23)C1 (centres undefined)	inactive
O=C(O)CCCCn1c(SCc2ccccc2Cl)nc2ccsc2c1=O	inactive
CCN(CC(=O)Nc1c(F)cccc1F)C(=O)c1cccc(-n2cccc2)c1	inactive
O=C(COC(=O)c1ccccc1Br)NC1CCCC1	inactive
Cc1c(NC(=O)CC(O)(C(F)(F)F)C(F)(F)F)c(=O)n(-c2ccccc2)n1C	inactive
COc1ccc(-c2coc3cc(O)ccc3c2=O)cc1	inactive
COCCNCC(=O)Nc1nc(C)cs1	inactive
CCCn1c(=N)c(C(=O)NCc2ccc3c(c2)OCO3)cc2c(=O)n3cccc(C)c3nc21	inactive
O=C(Cc1ccccc1)OCC(=O)c1ccc(F)cc1	inactive
CC(C)CCNC(=O)CCc1nnc(COc2ccccc2)o1	inactive
